Assay results taken from PubChem BioAssay AID1963842 (Molecular Pharmacology Branch, DTP, NCI, 2024).

Test system: 677734-321-R-J1-PDC complex spheroid viability
Assay: Anticancer human tumor 677734-321-R-J1-PDC patient-derived soft tissue sarcoma cell line growth inhibition [POLQ]
Conditions: for IC50: curve of first compound; for viability, T/C: stronger effect = lower value
How it was run: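 Complex spheroid viability model combining PDC tumour cells with endothelial (HUVEC) and MSC stromal cells. Novobiocin, ART-558 or RP6685 were tested singly and in combination with standard and investigational anticancer drugs. Each was titrated in half-log steps from near clinical Cmax, or from 10 microM where Cmax was unknown.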

[1] = second compound 0.0316 µM, first compound 0.0316 µM
[2] = second compound 0.0316 µM, first compound 0.1 µM
[3] = second compound 0.0316 µM, first compound 0.316 µM
[4] = second compound 0.0316 µM, first compound 1 µM
[5] = second compound 0.0316 µM, first compound 3.16 µM
[6] = second compound 0.0316 µM, first compound 10 µM
[7] = second compound 0.1 µM, first compound 0.0316 µM
[8] = second compound 0.1 µM, first compound 0.1 µM
[9] = second compound 0.1 µM, first compound 0.316 µM
[10] = second compound 0.1 µM, first compound 1 µM
[11] = second compound 0.1 µM, first compound 3.16 µM
[12] = second compound 0.1 µM, first compound 10 µM
[13] = second compound 0.316 µM, first compound 0.0316 µM
[14] = second compound 0.316 µM, first compound 0.1 µM
[15] = second compound 0.316 µM, first compound 0.316 µM
[16] = second compound 0.316 µM, first compound 1 µM
[17] = second compound 0.316 µM, first compound 3.16 µM
[18] = second compound 0.316 µM, first compound 10 µM
[19] = second compound 1 µM, first compound 0.0316 µM
[20] = second compound 1 µM, first compound 0.1 µM
[21] = second compound 1 µM, first compound 0.316 µM
[22] = second compound 1 µM, first compound 1 µM
[23] = second compound 1 µM, first compound 3.16 µM
[24] = second compound 1 µM, first compound 10 µM
[25] = second compound 3.16 µM, first compound 0.0316 µM
[26] = second compound 3.16 µM, first compound 0.1 µM
[27] = second compound 3.16 µM, first compound 0.316 µM
[28] = second compound 3.16 µM, first compound 1 µM
[29] = second compound 3.16 µM, first compound 3.16 µM
[30] = second compound 3.16 µM, first compound 10 µM
[31] = second compound 10 µM, first compound 0.0316 µM
[32] = second compound 10 µM, first compound 0.1 µM
[33] = second compound 10 µM, first compound 0.316 µM
[34] = second compound 10 µM, first compound 1 µM
[35] = second compound 10 µM, first compound 3.16 µM
[36] = second compound 10 µM, first compound 10 µM
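Further: spheroids exposed to compounds for one week.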
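Wherever viability, T/C is given: 100% = vehicle DMSO treated spheroids.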

CC1COCCN1c1cc(C2(O)CC3CCC(C2)O3)c2cnn(-c3ccn[nH]3)c2n1 (centres undefined) + Cc1cccc(N(C)C(=O)C2C(O)CCN2c2nc(C)cc(C(F)(F)F)c2C#N)c1
IC50 (second compound 0.0316 µM): 96.2 nM | IC50 (second compound 0.1 µM): 122 nM | IC50 (second compound 0.316 µM): 95.7 nM | IC50 (second compound 1 µM): 99.1 nM | IC50 (second compound 3.16 µM): 83.2 nM | IC50 (second compound 10 µM): 80.3 nM | viability, T/C [1]: 76.5% | viability, T/C [2]: 49% | viability, T/C [3]: 26.5% | viability, T/C [4]: 19% | viability, T/C [5]: 17.3% | viability, T/C [6]: 17.8% | viability, T/C [7]: 87.8% | viability, T/C [8]: 54.8% | viability, T/C [9]: 27.2% | viability, T/C [10]: 22.5% | viability, T/C [11]: 22.2% | viability, T/C [12]: 16.9% | viability, T/C [13]: 83.6% | viability, T/C [14]: 48.9% | viability, T/C [15]: 28.1% | viability, T/C [16]: 21% | viability, T/C [17]: 18.3% | viability, T/C [18]: 15.2% | viability, T/C [19]: 94.2% | viability, T/C [20]: 49.6% | viability, T/C [21]: 26.1% | viability, T/C [22]: 18% | viability, T/C [23]: 17.4% | viability, T/C [24]: 16.4% | viability, T/C [25]: 85.5% | viability, T/C [26]: 43.4% | viability, T/C [27]: 25.1% | viability, T/C [28]: 18.4% | viability, T/C [29]: 28.6% | viability, T/C [30]: 14% | viability, T/C [31]: 85.6% | viability, T/C [32]: 41.3% | viability, T/C [33]: 24.2% | viability, T/C [34]: 21.8% | viability, T/C [35]: 16.9% | viability, T/C [36]: 15.7%

O=C(Nc1ccc(O)c(NS(=O)(=O)c2ccc(F)cc2)c1)c1ccc(-c2ccccc2)cc1 + Cc1cccc(N(C)C(=O)C2C(O)CCN2c2nc(C)cc(C(F)(F)F)c2C#N)c1
IC50 (second compound 0.0316 µM): 4140 nM | IC50 (second compound 0.1 µM): 5420 nM | IC50 (second compound 0.316 µM): 3710 nM | IC50 (second compound 1 µM): 3420 nM | IC50 (second compound 3.16 µM): 2080 nM | IC50 (second compound 10 µM): 1470 nM | viability, T/C [1]: 89.4% | viability, T/C [2]: 92.9% | viability, T/C [3]: 97.1% | viability, T/C [4]: 96.7% | viability, T/C [5]: 60.3% | viability, T/C [6]: 16% | viability, T/C [7]: 98.5% | viability, T/C [8]: 95.8% | viability, T/C [9]: 101% | viability, T/C [10]: 92.7% | viability, T/C [11]: 75.6% | viability, T/C [12]: 20.9% | viability, T/C [13]: 101% | viability, T/C [14]: 97.1% | viability, T/C [15]: 99.3% | viability, T/C [16]: 70.6% | viability, T/C [17]: 58% | viability, T/C [18]: 19.3% | viability, T/C [19]: 103% | viability, T/C [20]: 90.2% | viability, T/C [21]: 101% | viability, T/C [22]: 101% | viability, T/C [23]: 52.5% | viability, T/C [24]: 15.6% | viability, T/C [25]: 84.3% | viability, T/C [26]: 110% | viability, T/C [27]: 87.6% | viability, T/C [28]: 75.7% | viability, T/C [29]: 35.5% | viability, T/C [30]: 17.9% | viability, T/C [31]: 76.8% | viability, T/C [32]: 95.1% | viability, T/C [33]: 74.6% | viability, T/C [34]: 59.1% | viability, T/C [35]: 31.5% | viability, T/C [36]: 11.4%
